The values that follow come from patent US12116355B2, “Deuterated 1-piperazino-3-phenyl indanes for treatment of schizophrenia” (H. Lundbeck A/S, priority 2011, dated 2024).

Where two headings read alike, the source gives them in different places.

Data set [1] relates to PCP-induced hyperactivity in mice. Nature of the data set: PCP-induced hyperactivity in mice. Particulars: hydrogen tartrate s.c. 30 minutes before test, PCP 2.3 mg/kg s.c.
Experimental: Locomotor activity was measured for 60 minutes as number of beam breaks (counts). Eight-to-16 male mice were used in each group. ##indicates P<0.01 versus Vehicle-PCP (One-way analysis of variance [ANOVA] followed by Bonferroni post-hoc test).
The test system of data set [2] is cryopreserved dog hepatocytes. Nature of the data set: Metabolism in cryopreserved dog hepatocytes, formation of desmethyl metabolite. It is filed as in vitro ADME, dog (male Beagle dog). Particulars: for amount of desmethyl metabolite (Compound (XI)) produced, versus Compound (X): cryopreserved dog hepatocytes. How it is done: Cryopreserved dog (male Beagle dog) hepatocytes (1 million cells/mL in suspension, 50 μL/well) were pre-incubated for 15 minutes in a 96-well plate at 37° C. water bath in DMEM high glucose buffered with 1 M HEPES.

Data set [3] can be described thus: Human pharmacokinetic multiple oral dose study. Particulars: male, healthy young men, 3 mg daily oral for 18 days, plasma after last dose, read-out: mean AUC 0-24 of parent compound. It is filed as in vivo. From the text: The pharmacokinetics of Compound (IV) and Compound (X) were compared in a multiple oral dose study in healthy young men.
The test system of data set [4] is catalepsy in rats. Particulars: fumarate salt, J. Med. Chem. 1995, 38, 4380-4392; cited from earlier work.
Data set [5] concerns D1. Particulars: in vitro, J. Med. Chem. 1995, 38, 4380-4392; cited from earlier work.
Data set [6] has as its system D2. Particulars: in vitro, J. Med. Chem. 1995, 38, 4380-4392; cited from earlier work.
Data set [7] deals with 5-HT2. Particulars: J. Med. Chem. 1995, 38, 4380-4392; cited from earlier work.
The test system of data set [8] is D2 receptors in rat brain. In words: In vivo binding to D2 receptors in rat brain. Particulars: 20 mg/kg subcutaneous 30 minutes before [3H]-raclopride i.v. How it is done:
Description of In Vivo Binding to D2 Receptors in Rat Brain
Briefly, 6 rats (male Wistar, 180-200 g) were treated with 20 mg/kg test compound subcutaneous 30 minutes before receiving 9.4 micro Ci [^3H]-raclopride intravenously via the tail vein.
15 minutes after the injection of the radio ligand, the animals were killed by cervical dislocation, the brain quickly removed, and striatum and cerebellum dissected out and homogenized in 5 mL (cerebellum in 20 mL) ice-cold buffer (50 mM K3PO4, pH 7.4). 1.0 mL of the homogenate was filtered through 0.1% PEI-soaked Whatman GF/C filters. This was completed within 60 seconds subsequent to the decapitation. Filters were washed 2 times with 5 mL ice-cold buffer and counted in a scintillation counter. A group of vehicle-treated animals was used to determine [^3H]-raclopride total binding in striatum and non-specific binding in cerebellum.

Data set [9] can be described thus: Metabolism in pooled human liver microsomes, formation of desmethyl metabolite. It is filed as in vitro ADME. On the procedure: Pooled human liver microsomes (50 donors, from Xenotech) were incubated with 1 μM or 10 μM of compound at 37° C. […] The protein concentration was 0.2 mg/mL and the final volume was 0.5 mL. Following a 10-minute pre-incubation, the reaction was initiated by adding Compound. After 0, 15, 30, 60, 90, 120, and 180 minutes, the reactions were terminated by transferring the subcellular fraction to 0.5 mL of stopping reagent containing internal standard. The incubations were carried out in triplicate. The samples were centrifuged at 4000 g (4° C., 15 min) and the supernatants were analyzed by HPLC-MS/MS. Data were expressed as MS area relative to an internal standard.
(Microsomes from liver hold many membrane-bound enzymes, among them those of drug oxidation.)

The target of data set [10] is recombinant human liver CYP2C19 (Homo sapiens (Human), UniProt P33261). In words: Metabolism by recombinant human liver CYP2C19. It is filed as in vitro ADME. On the procedure:
(§1) The protein concentration was 0.5 mg/mL and the final volume was 0.5 mL. […] After 0, 15, 30, 60, 90, 120, and 180 minutes, the reactions were terminated by transferring the subcellular fraction to 0.5 mL of stopping reagent containing internal standard. The incubations were carried out in triplicate. The samples were centrifuged at 4000×g (4° C., 15 minutes) and the supernatants were analyzed by HPLC-MS/MS. Data were expressed as MS area relative to an internal standard.

In data set [11] the target is recombinant human liver CYP3A4 (Homo sapiens (Human), UniProt P08684). Nature of the data set: Metabolism by recombinant human liver CYP3A4. It is filed as in vitro ADME. On the procedure: as §1
The test system of data set [12] is catalepsy in rats. In words: Catalepsy test in rats. Particulars: tartrate s.c. 30 minutes before test. It is filed as in vivo, rats (male Sprague Dawley). An excerpt:
Catalepsy is thought to reflect drug-induced suppression of the ability to initiate a behavioral response. The catalepsy test in rats is a common and widely used preclinical screening test for the EPS liability of potentially antipsychotic drugs. Although catalepsy is usually assessed following acute drug administration, the test has proven to be a reliable predictor for the propensity of an antipsychotic drug to induce EPS (that is, pseudo parkinsonism, dystonia) in humans (Elliott, P. J. et al, J. Neural. Transm. Park. Dis. Dement. Sect. 1990, 2, 79-89; herein incorporated by reference in its entirety). […] The minimal effective dose inducing catalepsy was 10 mg/kg (FIG. 17). […] Eight male Sprague Dawley rats were used in each group. # indicates P<0.05, ## indicates P<0.01 versus vehicle (One-way ANOVA followed by Bonferroni post-hoc test). This dose is 100 times higher than the dose indicating antipsychotic activity (FIG. 16).

A short description of data set [13]: pKa determination by potentiometric titration / Dip Probe Absorption Spectroscopy. It is filed as physicochemical. Particulars: ion strength 0.16, extrapolated to zero MeOH. How it is done:
pKa was determined by potentiometric titration of the base at ion strength 0.16 using MeOH as co-solvent. Three series of three repeated titrations on the same solution of the sample was performed in a conventional way from low to high pH and a difference curve was created from each of these titrations by blank subtraction. The apparent pKa-value at each MeOH:water ratio is calculated from the difference curves, and the pKa value is determined by extrapolation to zero MeOH content.
The lower pKa was determined by Dip Probe Absorption Spectroscopy detection during titration of the base at ion strength 0.16 using MeOH as co-solvent. The change in absorption spectra as a function of ionisation is used to calculate the pKa value. Two series of three repeated titrations on the same solution of the sample was performed from low to high pH, with a photo diode array as additional detection. The apparent pKa value at each MeOH:water ratio is calculated by target factor analysis on the change in absorption spectra, and the pKa value is determined by extrapolation to zero MeOH content.

Data set [14] can be described thus: Log P / log D profile by titration with n-octanol. It is filed as physicochemical. Particulars: n-octanol:water, 27° C., ion strength approximately 0.16. On the procedure: A series of three repeated titrations on the same sample in solution was performed, from low to high pH. The first titration was performed with a small amount of n-octanol present in the solution, the second and third with increasing amounts.
A difference curve was created from each of these titrations by blank subtraction, and from these difference curves, the apparent pKa values (poKa) were calculated. From the change in the apparent pKa values (ΔpKa) with the n-octanol:water ratio combined with the real pKa value, the Log P value was calculated and the Log D profile was derived.

Data set [15] is described as follows: Solubility of salts of Compound (IV). It is filed as physicochemical.

Chain of recombinant human liver CYP2C19 (P33261 whole entry): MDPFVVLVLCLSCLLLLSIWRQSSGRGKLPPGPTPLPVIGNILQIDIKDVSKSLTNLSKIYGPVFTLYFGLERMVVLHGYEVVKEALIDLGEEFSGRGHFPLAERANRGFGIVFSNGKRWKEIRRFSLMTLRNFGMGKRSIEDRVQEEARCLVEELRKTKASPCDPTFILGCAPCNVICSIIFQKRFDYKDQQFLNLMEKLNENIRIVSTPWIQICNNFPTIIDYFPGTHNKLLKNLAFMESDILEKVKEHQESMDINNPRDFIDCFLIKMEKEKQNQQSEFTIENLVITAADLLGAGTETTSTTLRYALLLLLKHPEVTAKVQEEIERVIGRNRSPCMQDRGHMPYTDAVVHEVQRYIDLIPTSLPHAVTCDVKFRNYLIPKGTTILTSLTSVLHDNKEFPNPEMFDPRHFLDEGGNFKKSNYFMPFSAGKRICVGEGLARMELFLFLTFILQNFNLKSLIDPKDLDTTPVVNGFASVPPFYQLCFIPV
Chain of recombinant human liver CYP3A4 (P08684 whole entry): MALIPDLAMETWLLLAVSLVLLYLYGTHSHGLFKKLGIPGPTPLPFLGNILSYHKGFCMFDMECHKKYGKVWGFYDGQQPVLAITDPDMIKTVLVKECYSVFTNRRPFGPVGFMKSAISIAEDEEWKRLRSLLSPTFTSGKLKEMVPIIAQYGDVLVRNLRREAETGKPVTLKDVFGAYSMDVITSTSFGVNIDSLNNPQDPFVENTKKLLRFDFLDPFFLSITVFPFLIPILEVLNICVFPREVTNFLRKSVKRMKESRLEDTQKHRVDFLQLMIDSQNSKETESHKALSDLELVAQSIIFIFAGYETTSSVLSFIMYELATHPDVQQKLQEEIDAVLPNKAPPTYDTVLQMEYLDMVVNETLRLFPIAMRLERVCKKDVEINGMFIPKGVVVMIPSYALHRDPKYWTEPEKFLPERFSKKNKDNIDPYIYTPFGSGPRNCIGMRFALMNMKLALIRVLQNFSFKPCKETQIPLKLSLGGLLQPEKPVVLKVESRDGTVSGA

In the case of `CN1CCN([C@@H]2C[C@@H](c3ccccc3)c3ccc(Cl)cc32)CC1(C)C` (single isomer, unassigned) [Compound (IV)], the “reversal of PCP-induced hyperactivity (locomotor activity)” value in data set [1] is “dose-dependently reverses”.
With `[2H]C([2H])([2H])N1CCN([C@@H]2C[C@@H](c3ccccc3)c3ccc(Cl)cc32)CC1(C)C` [Compound (I), 4-((1R,3S)-6-chloro-3-phenyl-indan-1-yl)-1-methyl-d3-2,2-dimethyl-piperazine], the “amount of desmethyl metabolite (Compound (XI)) produced, versus Compound (X)” value in data set [2] (0.1 μM) and in data set [2] (1 μM) was “lower” throughout. Also, the “decrease in formation of the desmethyl metabolite (Compound (XI)) in comparison to Compound (X)” value in data set [2] (dog hepatocytes) is listed as “approximately 50%”.
As to `CN1CCN([C@@H]2C[C@@H](c3ccccc3)c3ccc(Cl)cc32)CC1(C)C` [Compound (X), 4-((1R,3S)-6-Chloro-3-phenyl-indan-1-yl)-1,2,2-trimethyl-piperazine], the AUC(0-t) in data set [3] was 98 ng·h/mL. In [4], the catalepsy in rats entry is “does not induce catalepsy”. The D1 antagonism entry in data set [5] is listed as “potent D1/D2 antagonist”. For the same compound, the D2 antagonism entry in data set [6] is given as “potent D1/D2 antagonist”. For the same compound, in [7], the 5-HT2 antagonism result is “potent 5-HT2 antagonist”.
On to `[2H]c1c([2H])c([2H])c([C@@H]2C[C@@H](N3CCN(C)C(C)(C)C3)c3cc(Cl)ccc32)c([2H])c1[2H]` (single isomer, unassigned) [Compound (II)], for which the “occupancy of D2 receptors by in vivo binding” value in [8] was determined as 75%. The “amount of desmethyl metabolite produced, versus Compound (X)” value in data set [9] (1 μM) is “lower”; in data set [9] (10 μM), “lower”; in data set [10] (1 μM), “Corresponding results”; in [10] (10 μM) it was “lower”; in data set [11] (1 mM (so in the source)), “lower”; in data set [11] (10 mM (so in the source)), “lower”.
Broadly, the pKa is the pH at which an ionisable group is half protonated. In general, logP refers to a log measure of how a compound divides between an organic and an aqueous phase. A high value points to higher lipophilicity. By solubility is commonly meant the dissolved amount per volume that the medium holds. For the compound `[2H]c1c([2H])c([2H])c([C@@H]2C[C@@H](N3CCN(C([2H])([2H])[2H])C(C)(C)C3)c3cc(Cl)ccc32)c([2H])c1[2H]` (single isomer, unassigned) [Compound (IV)], the “occupancy of D2 receptors by in vivo binding” value in [8] worked out at 70%. Besides, the “amount of desmethyl metabolite produced, versus Compound (X)” value in data set [9] (1 μM) is “lower”; in data set [9] (10 μM), “lower”; in data set [10] (1 μM), “lower”; in [10] (10 μM) it was “Corresponding results”; in data set [11] (1 mM (so in the source)), “lower”; in data set [11] (10 mM (so in the source)), “lower”. Moreover, the induction of catalepsy entry in data set [12] is “dose-dependently induced catalepsy”. Also, the “minimal effective dose inducing catalepsy” value in data set [12] came out at 10 mg/kg. Also, in [3], the AUC(0-t) came to 104 ng·h/mL. The pKa in data set [13] (Dip Probe Absorption Spectroscopy, read-out: lower pKa) was 2.5 ± 0.1; in data set [13] (potentiometric titration, read-out: high pKa), 8.9 ± 0.1. This compound also had a logP in data set [14] of 5.4 ± 0.4. Further, the logD in data set [14] (pH 7.4, read-out: Log D7.4) was found to be 3.9 ± 0.4. The solubility in data set [15] (pH 7.6) worked out at 100 µg/mL. Also, the “pH of solubility solution” value in [15] (salts of Compound (IV)) worked out at 7.6.
